Measurements published in patent US6433005B1, “Benzofuran and benzothiophene derivatives as anti-inflammatory agents” (Syntex (U.S.A.) LLC, priority 2000, dated 2002).
pIC50: −log10 of the molar value.

Key:
COX I = target: T1, COX I (Homo sapiens, UniProt P23219); assay: Inhibition of COX I in vitro, radiometric assay with partially purified enzyme; assay type: biochemical; settings: 10 min preincubation, 20 micromolar [14C] arachidonic acid
T1 construct: made in house
Experimental: (§1) The COX I and COX II inhibitory activity of compounds of this invention in vitro was determined using partially purified COX I and COX II enzymes, prepared as described in J. Bamett et al., Biochim. Biophys. Acta, 1209,130-139 (1994).
(§2) COX I and COX II samples were diluted with Tris-HCl buffer (50 mM Tris-HCl, pH 7.9) containing 2 mM EDTA and 10% glycerol and reconstituted by incubating first with 2 mM phenol for 5 minutes and then with 1 micromolar hematin for an additional 5 minutes. 125 μL of the reconstituted COX I or COX II enzyme were preincubated for 10 minutes at room temperature in a shaking water bath with the compounds of the invention dissolved in 2-15 μL of DMSO or the carrier vehicles (control samples). The enzyme reaction was initiated by adding 25 μL of 1-[14 C] arachidonic acid (80,000-100,000 cpm/tube; 20 micromolar final concentration) and the reaction was allowed to continue for an additional 45 seconds. The reaction was terminated by adding 100 μL is of 2N HCl and 750 μL water. An aliquot (950 μL) of the reaction mixture was loaded onto a 1 mL C18 Sep-Pak column (J. T. Baker, Phillipsburg, N.J.) which had been previously washed with 2-3 mL methanol and equilibrated with 5-6 mL distilled water. Oxygenated products were quantitatively eluted with 3 mL of acetonitrile/water/acetic acid (50:50:0.1, v/v) and the radioactivity in the eluate determined in a scintillation counter. Compounds of this invention were active in this assay for COX II.
(§3) The COX inhibitory activities (expressed as IC50, the concentration causing 50% inhibition of the COX enzyme being assayed) of some exemplary compounds of the invention were: […]

COX II = target: T2, COX II (Homo sapiens, UniProt P35354); assay: Inhibition of COX II in vitro, radiometric assay with partially purified enzyme; assay type: biochemical; settings: 10 min preincubation, 20 micromolar [14C] arachidonic acid
T2 construct: made in house
T2 sequence (P35354 18-604): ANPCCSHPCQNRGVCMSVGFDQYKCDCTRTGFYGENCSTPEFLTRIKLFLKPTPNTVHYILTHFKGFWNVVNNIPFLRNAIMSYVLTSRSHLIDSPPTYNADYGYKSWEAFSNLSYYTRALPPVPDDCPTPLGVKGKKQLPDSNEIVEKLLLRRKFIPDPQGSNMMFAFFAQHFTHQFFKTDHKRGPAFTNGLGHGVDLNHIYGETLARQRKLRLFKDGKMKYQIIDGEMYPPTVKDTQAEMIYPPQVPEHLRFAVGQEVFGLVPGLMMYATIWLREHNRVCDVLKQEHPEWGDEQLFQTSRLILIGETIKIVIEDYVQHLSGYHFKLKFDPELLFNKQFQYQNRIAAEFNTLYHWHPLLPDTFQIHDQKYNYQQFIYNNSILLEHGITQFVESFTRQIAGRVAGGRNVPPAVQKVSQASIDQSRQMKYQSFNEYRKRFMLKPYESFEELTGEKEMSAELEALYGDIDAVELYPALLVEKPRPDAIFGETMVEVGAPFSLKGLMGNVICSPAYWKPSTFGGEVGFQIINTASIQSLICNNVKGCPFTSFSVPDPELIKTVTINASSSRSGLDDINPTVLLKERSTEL
Experimental: as §1, §2, §3

T1 sequence (P23219 24-599): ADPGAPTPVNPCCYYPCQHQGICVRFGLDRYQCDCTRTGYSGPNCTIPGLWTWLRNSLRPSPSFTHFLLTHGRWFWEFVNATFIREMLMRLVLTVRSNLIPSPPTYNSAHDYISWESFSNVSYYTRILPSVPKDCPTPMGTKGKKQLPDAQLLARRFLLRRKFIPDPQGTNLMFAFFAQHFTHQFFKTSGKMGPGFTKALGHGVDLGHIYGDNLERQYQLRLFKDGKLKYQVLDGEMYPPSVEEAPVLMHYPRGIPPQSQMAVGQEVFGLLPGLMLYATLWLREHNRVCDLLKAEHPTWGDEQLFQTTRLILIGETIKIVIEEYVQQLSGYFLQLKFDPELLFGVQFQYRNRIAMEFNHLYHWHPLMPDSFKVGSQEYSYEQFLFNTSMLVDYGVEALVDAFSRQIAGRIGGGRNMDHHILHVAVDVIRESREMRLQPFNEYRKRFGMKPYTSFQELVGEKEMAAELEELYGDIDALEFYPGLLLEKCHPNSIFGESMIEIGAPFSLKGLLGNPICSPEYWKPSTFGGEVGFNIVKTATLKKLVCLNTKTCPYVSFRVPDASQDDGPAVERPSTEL

Row | pIC50 (COX I) | pIC50 (COX II) | SMILES
1 | < 3.92 | > 5.82 | CCOc1ccc(Oc2c(C#N)sc3cc(S(C)(=O)=O)ccc23)cc1 [Cpd 31, 3-(4-ethoxy-phenoxy)-6-methanesulfonyl-benzo[b]thiophene-2-carbonitrile]
2 | < 3.92 | > 5.82 | CS(=O)(=O)c1ccc2c(Sc3ccc(Cl)cc3Cl)c(C#N)sc2c1 [Cpd 19, 3-(2,4-dichloro-phenylsulfanyl)-6-methanesulfonyl-benzo[b]thiophene-2-carbonitrile]
3 | < 3.92 | > 5.92 | CS(=O)(=O)c1ccc2c(Sc3ccccc3F)c(C#N)sc2c1 [Cpd 30, 3-(2-fluoro-phenylsulfanyl)-6-methanesulfonyl-benzo[b]thiophene-2-carbonitrile]
4 | < 3.92 | > 6.00 | CS(=O)(=O)c1ccc2c(Sc3ccccc3Cl)c(C#N)sc2c1 [Cpd 17, 3-(2-chloro-phenylsulfanyl)-6-methanesulfonyl-benzo[b]thiophene-2-carbonitrile]
5 | < 3.92 | > 5.82 | CS(=O)(=O)c1ccc2c(Sc3ccc(F)cc3)c(C#N)sc2c1 [Cpd 26, 3-(4-fluoro-phenylsulfanyl)-6-methanesulfonyl-benzo[b]thiophene-2-carbonitrile]
